Source: patent US7556938B1, “Nucleic acids encoding potassium channel interactors” (Millennium Pharmaceuticals, Inc., priority 1998, dated 2009)

Biological target: T1, interaction between N-terminal domain of Kv4.3 and KChIP1 (Rattus norvegicus, UniProt Q62897+Q8R426)
T1 construct: The intracellular N-terminal domain of Kv4.3 was expressed as a GST fusion protein (GST-Kv4.3N); GST (N, cleaved yes); made in house; host or cells: E. coli
T1 sequence (Q62897 1-182 limits assumed): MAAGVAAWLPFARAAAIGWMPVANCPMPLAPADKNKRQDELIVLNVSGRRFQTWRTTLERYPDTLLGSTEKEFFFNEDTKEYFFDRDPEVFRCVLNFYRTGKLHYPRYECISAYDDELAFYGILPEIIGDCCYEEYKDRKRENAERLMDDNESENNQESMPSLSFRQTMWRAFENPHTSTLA
T1 sequence (Q8R426 1-216 isoform Q8R426-2): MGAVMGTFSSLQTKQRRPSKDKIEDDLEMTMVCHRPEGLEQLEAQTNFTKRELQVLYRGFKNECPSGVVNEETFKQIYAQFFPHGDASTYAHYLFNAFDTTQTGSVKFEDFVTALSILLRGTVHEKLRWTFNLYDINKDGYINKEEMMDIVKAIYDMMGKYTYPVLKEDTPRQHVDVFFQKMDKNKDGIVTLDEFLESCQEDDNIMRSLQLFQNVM
Assay: Biosensor (Biacore) in vitro binding of KChIP1 to GST-Kv4.3N with and without arachidonic acid
Details: 10 μM arachidonic acid, 1 μM KChIP1
Text: The N-terminal domain of rat Kv4.3 was expressed as a GST fusion (GST-Kv4.3N) and purified from E. coli essentially following protocols provided by Amersham Pharmacia Biotech (Piscataway, N.J.). Recombinant rat KChIP1 protein was first expressed and purified as a GST-fusion, then the GST moiety was cleaved using PreScission protease (Amersham Pharmacia Biotech) to give rise to the free KChIP1 protein. Both GST-Kv4.3N and KChIP proteins were >95% pure as estimated by coomassie stain of denaturing gels. In vitro binding assays were performed using a Biacore 3000 from Biacore AB in Uppsala, Sweden. The experiments were performed in phosphate buffered saline (PBS), pH 7.4, with 1 mM CaCl2 and 0.05% polysorbate P-20. Anti-GST antibody (Biacore AB) was coupled to 3 flowcells of a CM-5 chip (Biacore AB) at a level of 2000 resonance units (RUs) using amine coupling. […]
To test the hypothesis that arachidonic acid acts by interfering with the binding between Kv4 and KChIPs, the surface plasmon resonance measurement (Biosensor) was first used to monitor the association and dissociation phases of Kv4-KChIP interaction in the presence and absence of arachidonic acid. The intracellular N-terminal domain of Kv4.3 was expressed as a GST fusion protein (GST-Kv4.3N) and immobilized to the surface of a Biosensor chip. […]

CCCCC/C=C\C/C=C\C/C=C\C/C=C\CCCC(=O)O [arachidonic acid]
effect on association and dissociation phase of KChIP1 binding to GST-Kv4.3N: a qualitative difference aws not observed
